Reference: patent US20060142572A1, “Inhibitors of ERK protein kinase and uses thereof” (priority 2004, published 2006)
pKi: −log10 of the molar value.

Biological target: activated ERK2 (Homo sapiens, UniProt P28482)
Assay: ERK2 inhibition assay (spectrophotometric coupled-enzyme assay)
Type: biochemical
Settings: activated ERK2 10 nM, 65 μM ATP, 200 μM erktide peptide, 30° C., pH 7.5
Procedure: Compounds were assayed for the inhibition of ERK2 by a spectrophotometric coupled-enzyme assay (Fox et al., Protein Sci. 7:2249, 1998). In this assay, a fixed concentration of activated ERK2 (10 nM) was incubated with various concentrations of a compound of the present invention in DMSO (2.5%) for 10 min. at 30° C. in 0.1 M HEPES buffer (pH 7.5), containing 10 mM MgCl2, 2.5 mM phosphoenolpyruvate, 200 μM NADH, 150 μg/ml pyruvate kinase, 50 μg/ml lactate dehydrogenase, and 200 μM erktide peptide. The reaction was initiated by the addition of 65 μM ATP. The rate of decrease of absorbance at 340 nm was monitored.

activated ERK2, sequence (P28482 whole entry): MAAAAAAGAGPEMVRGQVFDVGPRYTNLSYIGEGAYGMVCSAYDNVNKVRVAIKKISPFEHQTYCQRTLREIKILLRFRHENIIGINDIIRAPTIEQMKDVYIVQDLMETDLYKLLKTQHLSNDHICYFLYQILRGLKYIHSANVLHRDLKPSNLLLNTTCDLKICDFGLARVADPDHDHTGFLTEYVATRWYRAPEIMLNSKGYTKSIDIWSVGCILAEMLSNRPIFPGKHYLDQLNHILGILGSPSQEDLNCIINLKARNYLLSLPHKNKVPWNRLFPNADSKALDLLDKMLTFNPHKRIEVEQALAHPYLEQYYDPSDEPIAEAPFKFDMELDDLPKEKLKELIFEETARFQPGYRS

Row | pKi | SMILES
1 | < 6.15 | CC(C)Nc1ncc(Cl)c(NCC(=O)N[C@H](CO)c2cccc(Cl)c2)n1 [Compound I-1]
2 | ≥ 6.15 | C[C@@H](CO)Nc1ncc(Cl)c(NCC(=O)N[C@H](CO)c2cccc(Cl)c2)n1 [Compound I-2, 2-[5-chloro-2-(2-hydroxy-1-methylethylamino)-pyrimidin-4-ylamino]-N-[1-(3-chlorophenyl)-2-hydroxyethyl]acetamide]
3 | < 6.15 | CC(C)Nc1ncc(Cl)c(NCCC(=O)N[C@H](CO)c2cccc(Cl)c2)n1 [Compound I-3]
4 | < 6.15 | C[C@@H](CO)Nc1ncc(Cl)c(NCCC(=O)N[C@H](CO)c2cccc(Cl)c2)n1 [Compound I-4]
5 | < 6.15 | C[C@@H](CO)Nc1ncc(Cl)c(NC2(C(=O)N[C@H](CO)c3cccc(Cl)c3)CC2)n1 [Compound I-5, 1-(5-chloro-2-(2-hydroxy-1-methylethylamino)-pyrimidin-4-ylamino)-cyclopropanecarboxylic acid [1-(3-chlorophenyl)-2-hydroxyethyl]-amide]
6 | < 6.15 | CC[C@@H](CO)Nc1ncc(Cl)c(NC2(C(=O)N[C@H](CO)c3cccc(Cl)c3)CC2)n1 [Compound I-6]
7 | < 6.15 | C[C@@H](CO)Nc1ncc(Cl)c(N(C)CC(=O)N[C@H](CO)c2cccc(Cl)c2)n1 [Compound I-7, 2-{[5-chloro-2-(2-hydroxy-1-methylethylamino)pyrimidin-4-yl]-methylamino}-N-[1-(3-chlorophenyl)-2-hydroxyethyl]acetamide]
8 | < 6.15 | C[C@@H](CO)Nc1nccc(N(C)CC(=O)N[C@H](CO)c2cccc(Cl)c2)n1 [Compound I-8]
